The source of these data is patent US20190015416A1, “BTK INHIBITORS FOR TREATING NEUROBLASTOMA” (The Chinese University of Hong Kong, priority 2017, published 2019).

Assay [1] relates to SH-SY5Y cells. Put plainly: Cell cycle distribution by flow cytometry. The class given is cell-based, human. The settings on record: 24 hr, Ibrutinib 2.5 μM, NVP-TAE684 100 nM, Crizotinib 250 nM, control 64.90%.
A further assay concerns NBL-S cells. Put plainly: MTT proliferation assay. The class given is cell-based, human. Conditions: 48 hr treatment or transfection, normalized to DMSO. Here is the method: (§1) FIGS. 5A-5G: BTK signaling regulates cell proliferation. […] MTT were performed to measure the cell viability, the absorbance of treated cell groups was normalized to that of DMSO treated cells. (FIGS. 5C, 5D) MTT assay of NBL-S or SH-SY5Y cells transfected with BTK (FIG. 5C) or BTK siRNA (FIG. 5D) at 48 hr after transfection. […] (FIG. 5E) NBL-S cells and SH-SY5Y cells were treated with the inhibitors either separately or the combinations as indicated, and the treated cells were collected at different time points for MTT assay. The absorbance of treated cell groups was normalized to that of control cells treated with DMSO.
(§2) Neuroblastoma cells were seeded in 96-well plates at a concentration of 5×10^3 per well. After siRNA transfection or inhibitor treatment for 48 hours, 10 ul MTT ([…]) is added into every well followed by incubation for 4 hours. The absorbance was measured at A570 nm.

Assay [2] deals with SH-SY5Y cells. Put plainly: MTT proliferation assay. The class given is cell-based, human. The settings on record: 48 hr treatment or transfection, normalized to DMSO. Here is the method: as §1, §2
The next assay concerns SH-SY5Y tumor xenograft. The settings on record: SH-SY5Y xenograft in nude mice. The source says:
SH-SY 5Y cells were inoculated into flanks of nude mice. Animals were randomly divided into four groups when tumor xenograft reached 100 mm^3. […] (FIG. 7B) Quantifications of the tumor xenografts weight. The data are expressed as mean values±S.D. (n=4 in each group). **P<0.01. […] Mean±SD values are presented. **p<0.01; *p<0.05. […] (FIG. 7D) Cell proliferations in tumor xenografts were elucidated by immunohistochemical (IHC) analysis with Ki67 antibody. Scale bar represents 50 μm. (FIG. 7E) Quantification of Ki-67-positive cells within the xenografts. Ki-67-positive cells were quantitated from 5 random fields of each tumor xenograft under the microscope (400×) using Image-Pro PLUS V6.0.0.260 software. The values were normalized to those from vehicle treated mice. The data were presented as mean values±S.D. (n=4). **p<0.01; *p<0.05. Apoptosis markers such as cleaved PARP and cleaved Caspase 3 in xenograft tumors were examined by Western blot. […] The signals densities were analyzed by Image J. The relative signals of cleavage PARP to total PARP, cleaved Caspase 3 to tubulin were normalized to those from vehicle treated mice.
Neuroblastoma xenografts in nude mice were established by injection of SH-SY5Y cells.

As for `C=CC(=O)N1CCC[C@@H](n2nc(-c3ccc(Oc4ccccc4)cc3)c3c(N)ncnc32)C1` [Ibrutinib, 1-((R)-3-(4-amino-3-(4-phenoxyphenyl)-1H-pyrazolo[3,4-d]pyrimidin-1-yl)pi-peridin-1-yl)prop-2-en-1-one], the “cell portion at G0/G1 phase” value in the assay on SH-SY5Y cells [1] came out at 73.8%.

In the case of `C[C@@H](Oc1cc(-c2cnn(C3CCNCC3)c2)cnc1N)c1c(Cl)ccc(F)c1Cl` [Crizotinib], the “cell proliferation (MTT)” value with NBL-S cells is recorded as “can be inhibited”; with SH-SY5Y cells [2], “insensitive”. Also, in the assay with SH-SY5Y tumor xenograft (14 days treatment), the “proliferation of neuroblastoma cells in vivo (Ki67 immunostaining)” value is “inhibited proliferation”. Further, in the assay on SH-SY5Y tumor xenograft (Western blot), the “cell apoptosis in tumor xenograft (cleaved caspase 3 and PARP)” value was “potentiated cell apoptosis”. Further, in the assay on SH-SY5Y tumor xenograft (intraperitoneal injection, 14 days), the “growth of neuroblastoma xenograft” value is given as “only moderately inhibited”.

`COc1cc(N2CCC(N3CCN(C)CC3)CC2)ccc1Nc1ncc(Cl)c(Nc2ccccc2S(=O)(=O)C(C)C)n1` [NVP-TAE684]: the “cell proliferation (MTT)” value with NBL-S cells and in the assay with SH-SY5Y cells [2] was “can be inhibited” throughout.
